{
  "source": "patent US20100016250A1",
  "about": "“TOLL-LIKE RECEPTOR 9 AGONISTS” (KYOWA HAKKO KIRIN CO., LTD., priority 2006, published 2010)",
  "key": {"NF-κB": {"tested_on": "NF-κB", "test": "Promoting effect on NF-κB promoter-dependent transcriptional activity (luciferase reporter)", "type": "cell-based, human", "conditions": "BGERKB5 cells (Namalwa KJM-1 with pIF-luc), 5 hours incubation; FIGS. 2 and 3", "protocol": "For the purpose of constructing an evaluation system for determination of NF-κB activity, the following stable transformant cell line was used. NF-κB luciferase reporter plasmid pIF-luc (containing a hygromycin resistant gene expression unit) introduced into cells was prepared by the method described in Japanese Published Unexamined Patent Application No. 169479/00. The plasmid was introduced into a human B-cell line, Namalwa (KJM-1) [Cytotechnology, Vol. 1, p. 151 (1988)], followed by culturing with addition of 0.3 mg/mL hygromycin B to select hygromycin-resistant cells. Among the selected hygromycin-resistant cells, a cell line with which enhancement of luciferase activity by TNF-α (10 ng/mL) stimulation was confirmed (hereinafter referred to as BGERKB5 cells) was used in the following test.\nThe BGERKB5 cells were suspended in RPMI1640·ITPSG medium having the following composition at a concentration of 1×10^6 cells/mL (hereinafter referred to as the BGERKB5 cell suspension). A test compound was dissolved in phosphate buffer (pH 5) and diluted to a desired concentration with RPMI1640·ITPSG medium to prepare an aqueous solution.\nTo RPMI1640 medium (Nissui Pharmaceutical Co., Ltd.) were added the following substances at the following concentration or ratio based on the medium (the resulting medium is hereinafter referred to as RPMI1640·ITPSG medium)."}, "CD40": {"tested_on": "CD40", "conditions": "BGERKB5 cells, 50 nmol/L, 12 hours", "protocol": "(§1) Flow cytometry analysis of CD40, CD80, CD86, etc., which are co-stimulating molecules important for the activation of lymphocytes, can be carried out in the following manner.\n(§2) The BGERKB5 cell suspension having a concentration of 1.1×10^6 cells/mL obtained in Test Example 1 (90 μL) was put into wells of a 96-well plate containing an aqueous solution of a test compound prepared according to the method described in Test Example 1 (10 μL) (final concentration: 50 nmol/L), followed by incubation in a CO2 incubator at 37° C. for 12 hours (test compound group). As a control test, a control group without addition of a test compound was also prepared.\n(§3) The following experiments were carried out at a temperature not more than 4° C. The cells were washed twice with 200 μL of phosphate buffer (PBS) containing 1% bovine serum albumin (Fraction V, Sigma) and 0.05% sodium azide, followed by replacement with the same buffer (100 μL). A phycoerythrin-labeled mouse anti-human CD40 monoclonal antibody solution (BD Biosciences), a phycoerythrin-labeled mouse anti-human CD80 monoclonal antibody solution (BD Biosciences) or a phycoerythrin-labeled mouse anti-human CD86 monoclonal antibody solution (BD Biosciences) (2 μL) was added to the cells, and after stirring, the cells were allowed to stand in the dark for 50 minutes.\n(§4) The cells were washed twice with 200 μL of phosphate buffer (PBS) containing 1% bovine serum albumin (Fraction V, Sigma) and 0.05% sodium azide, followed by replacement with the same buffer (500 μL).\n(§5) The cell count was determined using EPICS XL-MCL (Beckman Coulter, Inc., excitation wavelength 488 nm, argon laser) as a flow cytometer and a positive cell ratio was calculated. As a measurement software, System 2 version 3.0 (Beckman Coulter, Inc.) was used."}, "CD80": {"tested_on": "CD80", "conditions": "BGERKB5 cells, 50 nmol/L, 12 hours", "protocol": "as §1, §2, §3, §4, §5"}, "CD86": {"tested_on": "CD86", "conditions": "BGERKB5 cells, 50 nmol/L, 12 hours", "protocol": "as §1, §2, §3, §4, §5"}, "IP-10": {"tested_on": "IP-10", "conditions": "BGERKB5 cells, 50 nmol/L, 48 hours, culture supernatant", "protocol": "Enzyme-linked immunosorbent assay (ELISA) of IP-10 can be carried out in the following manner.\nAs a control test, a control group without addition of a test compound was also prepared.\nMeasurement of the amount of IP-10 produced by the BGERKB5 cells was carried out using an immunoassay kit (BioSource International, Inc.). A calibration curve was prepared using the preparation attached to the kit, and the amount of IP-10 in the culture supernatant was measured."}, "CD80 antigen (CD80)": {"tested_on": "CD80 antigen (CD80)", "conditions": "Mock cells, 50 nmol/L, 5 hours; corrected with GAPDH, ratio to solvent control (=1)", "protocol": "(§6) The remaining portion (2.6 mL) of each of the cell suspensions of the four groups used in Test Example 4 was incubated in a 15-mL sterile tube for 5 hours. The cells were collected, and the expression levels of genes of glyceraldehyde-3-phosphoate dehydrogenase (GAPDH), luciferase (NF-κB promoter-derived) (NF-κB-LUC), interleukin 12B (IL12B) and CD80 antigen (CD80) were measured by the quantitative RT-PCR method using SYBR-Green [see Bio Techniques, Vol. 22, p. 130-131, p. 134-138 (1997)].\n(§7) That is, the cell suspension of each group remaining in the above test was subjected to the following procedure.\n(§8) The cell suspension (1×10^6 cells/mL) of each group (2.6 mL: total cell number 2.6×10^6 cells) was centrifuged using himac CF702 centrifuge (Hitachi Koki Co., Ltd.) at 4° C. at 800 rpm for 10 minutes, and after the supernatant was removed using Pipetman, PBS (2 mL) was added. The obtained cell suspension was further centrifuged using himac CF702 centrifuge (Hitachi Koki Co., Ltd.) at 4° C. at 800 rpm for 10 minutes, and the supernatant was removed using Pipetman to obtain cells.\n(§9) Total RNA was extracted from the obtained cells using RNeasy Mini Kit (registered trademark: Qiagen, Inc.) according to the manual attached to the kit. By using the obtained total RNA as a template, cDNA was synthesized in the following manner using Super Script First-strand Synthesis System for RT-PCR (Invitrogen Corp.) according to the manual attached to the kit.\n(§10) Ten mmol/L dNTPs mixture solution (1.0 μL) and 0.5 μg/μL oligo(dT)12-18 primer (1.0 μL) were added to the […] (5 μg), and the mixture was diluted with an aqueous solution of diethyl pyrocarbonate (DEPC) to make a total volume of 10.0 μL. The obtained solution was heated at 65° C. for 5 minutes, then rapidly cooled on ice, and allowed to stand for more than one minute for denaturation."}, "[1]": {"tested_on": "glyceraldehyde-3-phosphate dehydrogenase (GAPDH)", "conditions": "Mock cells, 50 nmol/L, 5 hours; GAPDH is the internal standard regarded as 1; solvent control = 1", "protocol": "as §6, §7, §8, §9, §10"}, "interleukin 12B (IL12B)": {"tested_on": "interleukin 12B (IL12B)", "conditions": "Mock cells, 50 nmol/L, 5 hours; corrected with GAPDH, ratio to solvent control (=1)", "protocol": "as §6, §7, §8, §9, §10"}, "[2]": {"tested_on": "luciferase (NF-κB promoter-derived) (NF-κB-LUC)", "conditions": "Mock cells, 50 nmol/L, 5 hours; corrected with GAPDH, ratio to solvent control (=1)", "protocol": "as §6, §7, §8, §9, §10"}, "TLR9": {"target": "TLR9 (Homo sapiens, UniProt Q9NR96)", "sequence (Q9NR96 26-1032)": "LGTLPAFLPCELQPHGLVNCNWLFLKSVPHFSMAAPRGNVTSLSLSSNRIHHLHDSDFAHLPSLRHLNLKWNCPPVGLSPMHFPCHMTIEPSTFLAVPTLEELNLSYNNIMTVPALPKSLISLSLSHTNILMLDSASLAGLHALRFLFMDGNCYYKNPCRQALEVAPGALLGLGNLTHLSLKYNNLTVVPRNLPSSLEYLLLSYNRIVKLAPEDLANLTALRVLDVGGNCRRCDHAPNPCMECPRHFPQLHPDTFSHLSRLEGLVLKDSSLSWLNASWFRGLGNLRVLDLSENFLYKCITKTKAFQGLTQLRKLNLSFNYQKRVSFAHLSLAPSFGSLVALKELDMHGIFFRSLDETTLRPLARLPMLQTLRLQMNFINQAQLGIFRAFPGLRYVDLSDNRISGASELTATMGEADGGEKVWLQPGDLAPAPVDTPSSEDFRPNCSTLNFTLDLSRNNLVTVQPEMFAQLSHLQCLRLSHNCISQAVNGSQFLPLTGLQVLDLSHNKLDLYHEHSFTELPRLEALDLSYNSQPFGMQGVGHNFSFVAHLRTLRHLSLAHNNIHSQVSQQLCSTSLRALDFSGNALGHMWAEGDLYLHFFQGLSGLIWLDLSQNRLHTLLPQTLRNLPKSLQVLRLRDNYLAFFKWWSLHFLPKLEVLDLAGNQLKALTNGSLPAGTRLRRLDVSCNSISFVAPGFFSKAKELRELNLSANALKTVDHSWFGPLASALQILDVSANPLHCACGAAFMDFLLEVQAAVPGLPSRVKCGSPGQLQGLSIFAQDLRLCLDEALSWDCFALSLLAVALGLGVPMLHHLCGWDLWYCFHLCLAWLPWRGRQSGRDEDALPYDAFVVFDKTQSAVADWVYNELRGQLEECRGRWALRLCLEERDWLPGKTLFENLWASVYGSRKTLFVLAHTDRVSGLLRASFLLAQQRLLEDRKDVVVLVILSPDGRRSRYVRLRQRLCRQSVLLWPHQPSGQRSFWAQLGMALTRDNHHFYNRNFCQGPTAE", "conditions": "BGERKB5 cells without siRNA (Mock), 50 nmol/L, 5 hours", "procedure": "A knockdown test of TLR9 using siRNA in BGERKB5 cells can be carried out in the following manner.\nA BGERKB5 cell suspension (0.5 mL) having a concentration of 4×10^5 cells/mL obtained according to the method described in Test Example 1 was seeded into 6 wells of a 24-well plate (total cell number: 1.2×10^6 cells), followed by incubation in a CO2 incubator at 37° C. for 24 hours.\nThen, siRNA against TLR9 (Ambion, Inc., pre-designed siRNA, ID#6055, Cat. 16704, Lot. 047951si) was introduced in an amount of 100 pmol per well using lipofectamine 2000 (Invitrogen Corp.).\nTwenty-four hours after the siRNA introduction, the medium was replaced with a fresh one, followed by further incubation for 48 hours. The obtained cells were collected in a sterile tube and suspended in RPMI1640·ITPSG medium at a concentration of 1×10^6 cells/mL (TLR9 kd group). “Mock group” containing no siRNA was prepared in the same manner as in the preparation of “TLR9 kd group”. […]\nA 400-μL portion from each of the cell suspensions of the four groups (3 mL) was seeded in quadruplicate 100 μL aliquots into a 96-well plate, followed by incubation for 5 hours. Steady-Glo (Promega Corp.) (100 μL) was added and the luciferase activity (RLU) in each well was measured using Multilabel Counter ARVO (Perkin-Elmer Corp.)."}},
  "data": [
    {"compound": "CC(=O)OCCC1OC(OP(=O)(O)OP(=O)(O)OCC2OC(n3cnc4c(N)ncnc43)C(O)C2O)C(OC(C)=O)C(OC(C)=O)C1OC(C)=O", "note": "[Compound 1, Adenosine=5′-(2,3,4,7-tetra-O-acetyl-6-deoxy-β-D-mannoheptopyranosyl)diphosphate]", "values": [
      {"measurement": "luciferase activity (RLU), activating effect on NF-κB", "setting": "NF-κB", "result": "enhancement of luciferase activity was confirmed"}
    ]},
    {"compound": "Nc1ncnc2c1ncn2C1OC(COP(=O)(O)OP(=O)(O)OC2OC(CCO)C(O)C(O)C2O)C(O)C1O", "note": "[Compound 2, Adenosine=5′-(6-deoxy-β-D-mannoheptopyranosyl)diphosphate]", "values": [
      {"measurement": "luciferase activity (RLU), activating effect on NF-κB", "setting": "NF-κB", "result": "enhancement of luciferase activity was confirmed"}
    ]},
    {"compound": "CC(=O)OCC(OC(C)=O)C1OC(OP(=O)(O)OP(=O)(O)OCC2OC(n3cnc4c(N)ncnc43)C(O)C2O)C(OC(C)=O)C(OC(C)=O)C1OC(C)=O", "note": "[Compound 10, Adenosine=5′-(2,3,4,6,7-penta-O-acetyl-L-glycero-β-D-mannoheptopyranosyl)diphosphate]", "values": [
      {"measurement": "luciferase activity (RLU), activating effect on NF-κB", "setting": "NF-κB", "result": "enhancement of luciferase activity was confirmed"}
    ]},
    {"compound": "Nc1ncnc2c1ncn2[C@@H]1O[C@H](COP(=O)(O)OP(=O)(O)O[C@@H]2OC([C@@H](O)CO)[C@@H](O)C(O)C2O)C(O)C1O", "note": "(stereo partly drawn) [Compound 12, Adenosine=5′-(L-glycero-β-D-mannopyranosyl)diphosphate]", "values": [
      {"measurement": "luciferase activity (RLU), activating effect on NF-κB", "setting": "NF-κB", "result": "enhancement of luciferase activity was confirmed"}
    ]},
    {"compound": "CC(=O)OC[C@@H](OC(C)=O)[C@H]1O[C@@H](OP(=O)(O)OP(=O)(O)OC[C@H]2O[C@@H](n3cnc4c(N)ncnc43)[C@H](O)[C@@H]2O)[C@@H](OC(C)=O)[C@@H](OC(C)=O)[C@@H]1OC(C)=O", "note": "[Compound 14, Adenosine=5′-(2,3,4,6,7-penta-O-acetyl-D-glycero-β-D-mannoheptopyranosyl)diphosphate]", "values": [
      {"measurement": "luciferase activity (RLU), activating effect on NF-κB", "setting": "NF-κB", "result": "enhancement of luciferase activity was confirmed"}
    ]},
    {"compound": "Nc1ncnc2c1ncn2[C@@H]1O[C@H](COP(=O)(O)OP(=O)(O)O[C@@H]2O[C@H]([C@H](O)CO)[C@@H](O)[C@H](O)[C@@H]2O)[C@@H](O)[C@H]1O", "note": "[Compound 16, Adenosine=5′-(D-glycero-β-D-mannoheptopyranosyl)diphosphate]", "values": [
      {"measurement": "luciferase activity (RLU), activating effect on NF-κB", "setting": "NF-κB", "result": "enhancement of luciferase activity was confirmed"},
      {"measurement": "Positive cell ratio (%) CD40", "setting": "CD40", "result": 93.6, "unit": "%"},
      {"measurement": "Positive cell ratio (%) CD80", "setting": "CD80", "result": 45.7, "unit": "%"},
      {"measurement": "Positive cell ratio (%) CD86", "setting": "CD86", "result": 78.4, "unit": "%"},
      {"measurement": "amount of IP-10 produced", "setting": "IP-10", "result": 1441, "unit": "pg/mL"},
      {"measurement": "relative mRNA expression level, CD80, Mock", "setting": "CD80 antigen (CD80)", "result": 127},
      {"measurement": "relative mRNA expression level, GAPDH, Mock", "setting": "[1]", "result": 1.0},
      {"measurement": "relative mRNA expression level, IL12B, Mock", "setting": "interleukin 12B (IL12B)", "result": 1.4},
      {"measurement": "relative mRNA expression level, NF-κB-LUC, Mock", "setting": "[2]", "result": 59.7},
      {"measurement": "Luciferase activity (RLU) (mean ± standard error), Mock", "setting": "TLR9", "result": "7196.7 ± 88.8", "unit": "RLU"}
    ]},
    {"compound": "Adenosine=5′-(6-deoxy-β-D-mannoheptopyranosyl)-α, β-methylene diphosphate [Compound 30]", "values": [
      {"measurement": "luciferase activity (RLU), activating effect on NF-κB", "setting": "NF-κB", "result": "enhancement of luciferase activity was confirmed"},
      {"measurement": "amount of IP-10 produced", "setting": "IP-10", "result": 821, "unit": "pg/mL"}
    ]}
  ]
}
